Experiment: Solubility
Assay type: physicochemical
[1] = Benzene, hexane and ether, crystals of Example 1
[2] = Benzene, hexane and ether, crystals of Example 2 (pure)
[3] = Chloroform, ethyl acetate, methanol and acetone, crystals of Example 1
[4] = Chloroform, ethyl acetate, methanol and acetone, crystals of Example 2 (pure)
[5] = water, crystals of Example 2 (pure)

| Structure (SMILES) | Solubility [1] | Solubility [2] | Solubility [3] | Solubility [4] | Solubility (water, crystals of Example 1) | Solubility [5] |
| --- | --- | --- | --- | --- | --- | --- |
| CCCC/C=C/C=C/C=C/C=NN=NO [FR-900184] | Sparingly soluble | Sparingly soluble | Soluble | Soluble | Insoluble | Insoluble |
| CCC/C=C/C/C=C/C=C/C=NN=NO [FR-900190] | Sparingly soluble | Sparingly soluble | Soluble | Soluble | Insoluble | Insoluble |
